# How the values were obtained:
# [1] = target: T1, 4-hydroxy-tetrahydrodipicolinate synthase (Escherichia coli K-12, UniProt P0A6L2); assay: (§1) Inhibition of Escherichia coli dihydrodipicolinate synthase
# T1 sequence (P0A6L2 whole entry): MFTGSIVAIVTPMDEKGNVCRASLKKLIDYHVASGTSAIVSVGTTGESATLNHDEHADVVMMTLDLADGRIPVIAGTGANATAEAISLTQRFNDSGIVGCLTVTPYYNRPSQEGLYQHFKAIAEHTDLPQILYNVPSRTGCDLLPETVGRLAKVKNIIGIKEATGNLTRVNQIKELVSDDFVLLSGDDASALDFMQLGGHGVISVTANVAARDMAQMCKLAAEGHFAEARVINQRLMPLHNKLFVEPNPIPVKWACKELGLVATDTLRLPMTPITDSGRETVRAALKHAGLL
# [2] = target: T2, 4-hydroxy-tetrahydrodipicolinate synthase (Escherichia coli K-12) (UniProt P0A6L2); assay: Uncompetitive inhibition of Escherichia coli dihydrodipicolinate synthase using DL-ASA as substrate
# T2 sequence (whole entry): T1 sequence (P0A6L2 whole entry)
# [3] = target: T2, 4-hydroxy-tetrahydrodipicolinate synthase (Escherichia coli K-12); assay: Competitive inhibition of Escherichia coli dihydrodipicolinate synthase using pyruvate as substrate
# [4] = target: T2, 4-hydroxy-tetrahydrodipicolinate synthase (Escherichia coli K-12); assay: Competitive inhibition of Escherichia coli dihydrodipicolinate synthase using ASA as substrate
# [5] = target: T2, 4-hydroxy-tetrahydrodipicolinate synthase (Escherichia coli K-12); assay: as §1
# [6] = target: T1, 4-hydroxy-tetrahydrodipicolinate synthase; assay: Reversible competitive inhibition of Escherichia coli dihydrodipicolinate synthase
# [7] = target: T2, 4-hydroxy-tetrahydrodipicolinate synthase (Escherichia coli K-12); assay: Inhibition of Escherichia coli dihydrodipicolinate synthase at 1.2 mM relative to control
# [8] = target: T2, 4-hydroxy-tetrahydrodipicolinate synthase (Escherichia coli K-12); assay: Competitive inhibition of Escherichia coli dihydrodipicolinate synthase using DL-ASA as substrate
# [9] = target: T1, 4-hydroxy-tetrahydrodipicolinate synthase; assay: Inhibition of Escherichia coli dihydrodipicolinate synthase assessed as inhibitory dissociation constant using ASA as substrate
# [10] = Reversible competitive inhibition of Bacillus subtilis PCI-219 dihydrodipicolinate synthase using pyruvate as substrate after 10 mins by double reciprocal plot analysis
# [11] = Reversible competitive inhibition of Bacillus subtilis PCI-219 dihydrodipicolinate synthase using DL-ASA as substrate after 10 mins by double reciprocal plot analysis
# [12] = target: 4-hydroxy-tetrahydrodipicolinate synthase (Mycobacterium tuberculosis, UniProt P9WP25); assay: Reversible inhibition of recombinant N-terminal His-6 tagged Mycobacterium tuberculosis dihydrodipicolinate synthase using (S)-ASA as substrate preincubated for 5 mins followed by substrate addition measured over 10 mins by spectrophotometric analysis
# [13] = target: 4-hydroxy-tetrahydrodipicolinate synthase (Mycobacterium tuberculosis) (UniProt P9WP25); assay: Inhibition of recombinant N-terminal His-6 tagged Mycobacterium tuberculosis dihydrodipicolinate synthase using (S)-ASA as substrate preincubated for 5 mins followed by substrate addition measured over 10 mins by spectrophotometric analysis relative to control
# [14] = Inhibition of Campylobacter jejuni dihydrodipicolinate synthase
# [15] = Reversible inhibition of Campylobacter jejuni dihydrodipicolinate synthase
# [16] = target: T2, 4-hydroxy-tetrahydrodipicolinate synthase (Escherichia coli K-12); assay: Inhibition of Escherichia coli dihydrodipicolinate synthase at 1 mM relative to control
# [17] = target: T2, 4-hydroxy-tetrahydrodipicolinate synthase (Escherichia coli K-12); assay: Inhibition of Escherichia coli dihydrodipicolinate synthase at 4.6 mM relative to control
# [18] = target: T2, 4-hydroxy-tetrahydrodipicolinate synthase (Escherichia coli K-12); assay: Uncompetitive inhibition of Escherichia coli dihydrodipicolinate synthase using pyruvate as substrate
# [19] = target: T1, 4-hydroxy-tetrahydrodipicolinate synthase; assay: Reversible inhibition of Escherichia coli dihydrodipicolinate synthase using pyruvate as substrate
# [20] = target: T1, 4-hydroxy-tetrahydrodipicolinate synthase; assay: Reversible inhibition of Escherichia coli dihydrodipicolinate synthase using ASA as substrate
# Chain of 4-hydroxy-tetrahydrodipicolinate synthase (Mycobacterium tuberculosis, UniProt P9WP25) (P9WP25 whole entry): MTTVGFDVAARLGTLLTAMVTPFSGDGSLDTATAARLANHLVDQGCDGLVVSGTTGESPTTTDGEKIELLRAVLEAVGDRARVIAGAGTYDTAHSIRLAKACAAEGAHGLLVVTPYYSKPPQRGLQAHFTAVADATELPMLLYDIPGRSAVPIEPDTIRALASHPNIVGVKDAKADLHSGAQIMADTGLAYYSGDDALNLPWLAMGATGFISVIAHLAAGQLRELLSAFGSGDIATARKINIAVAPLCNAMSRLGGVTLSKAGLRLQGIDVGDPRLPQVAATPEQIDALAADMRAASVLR
# Chain of 4-hydroxy-tetrahydrodipicolinate synthase (Mycobacterium tuberculosis) (P9WP25 whole entry): as above
smiles,measurement,setting,value
COC(=O)c1cccc(C(=O)OC)n1,IC50,[1],700 µM
O=C(O)c1cccc(C(=O)O)[n+]1[O-],IC50,[1],200 µM
CCCC(=O)C(=O)O,Kii,[2],1.6 mM
same,Kis,[3],0.7 mM
CCC(=O)C(=O)O,Kis,[2],1.3 mM
same,Kis,[3],0.83 mM
O=CCCC(=O)O,Kis,[4],44 µM
CC(=O)C(=O)O,Kic,[5],54 µM
same,Kiuc,[5],12 µM
O=C(O)c1cccc(C(=O)O)n1 [DIPICOLINIC ACID],IC50,[6],400 µM
same,Ki,[1],11000 µM
same,inhibition,[7],50%
O=C(O)C(=O)CF,Kis,[3],0.22 mM
same,Kis,[8],2 mM
COC(=N)c1cccc(C(=N)OC)n1,IC50,[1],200 µM
O=NN1CCCCC1C(=O)O (racemic),IC50,[1],3500 µM
O=C(O)C1=CCCC(C(=O)O)C1 (stereo unspecified),IC50,[1],15000 µM
N[C@@H](CCC(=O)O)C(=O)O [GLUTAMIC ACID],Ki,[9],9000 to 24000 µM
O=C(O)CCCCC(=O)C(=O)O,Ki,[10],160 µM
same,Ki,[11],220 µM
same,Ki,[12],33 µM
c1cc(-c2nnn[nH]2)nc(-c2nnn[nH]2)c1,IC50,[1],250 µM
O=NN1CCC[C@H]1C(=O)O,IC50,[1],7500 µM
NC1CCCC1=O (stereo unspecified),Ki,[9],12000 to 24000 µM
O=C(O)CCCCC(O)C(=O)O (stereo unspecified),inhibition,[13],74%
O=CC(=O)O,Kii,[2],0.028 mM
same,Kis,[3],0.016 mM
O=C(O)c1cccc(C(=O)O)c1 [ISOPHTHALIC ACID],Ki,[1],5400 to 5600 µM
N#Cc1cccc(C#N)n1,IC50,[1],300 µM
N[C@@H](CC=O)C(=O)O,Kic,[5],31 µM
same,Kiuc,[5],26 µM
NCCCC[C@@](N)(CC[C@](N)(CCCCN)C(=O)O)C(=O)O,IC50,[14]; read-out: IC50,0.3 µM
same,Ki,[15],0.14 µM
NCCCC[C@H](N)C(=O)O [LYSINE],IC50,[14]; read-out: IC50(app),65 µM
same,IC50,[1],180 µM
same,inhibition,[16],50%
same,Kis,[8],0.2 mM
NCCSC[C@H](N)C(=O)O,Kii,[2],4.7 mM
same,inhibition,[17],50%
same,Kii,[18],1.9 mM
same,Kis,[8],2.4 mM
O=C(O)C(=O)CBr [BROMOPYRUVATE],Ki,[19],160 µM
N[C@H]1CCOC1=O [HOMOSERINE LACTONE],Ki,[19],8000 to 15000 µM
same,Ki,[20],12000 to 22000 µM
N[C@@H](CC(=O)O)C(=O)O [ASPARTIC ACID],Ki,[20],90 to 140 µM
same,Ki,[9],21000 to 39000 µM

# Source: ChEMBL document CHEMBL4334427 (Medchemcomm, 2019)
